Measurements published in patent publication US20260356826A1, “SALTS OF AMINO QUINAZOLINE DERIVATIVES” (CHIESI FARMACEUTICI S.P.A., priority 2023, published 2026).
“Also recorded” adds a separate entry of the source. Structures can show the parent of a compound that is named as a salt.

How the values were obtained:
Type in all cases: physicochemical
[1] = Formulations with polymer: drug content and appearance; settings: for Found conc.: nominal 40 mg/ml
Excerpt: The formulation having a 0.05 M citrate buffer concentration was chosen to be tested with the addition of polymers to investigate the effect due to a potential viscosity increase.
Different percentage of polymers were used, e.g. 5% w/v of polyvinylpyrrolidone (PVP) 40 or 1% w/v HPMC.
The formulations were studied with or without the use of the surfactant D-α-tocopherol polyethylene glycol succinate (Vit. E TPGS, Sigma Aldrich; CAS: 9002-96-4) in 0.05 M citrate buffer at pH 2.5 at the nominal concentration of 40 mg/ml. To prepare the vehicle the proper amount of citric acid was dissolved in water in a volumetric flask, then the pH was increased up to 2.5 using 0.1 M NaOH. Then water was added and brought to the final volume. The polymers PVP 40 (Sigma Aldrich; CAS: 9003-39-8) or HPMC (viscosity 46-60 cP; Sigma Aldrich; CAS: 9004-65-3) were gently dissolved in citrate buffer and left under magnetic stirring for at least 1 hour to their complete hydration. When required, Vit. E TPGS was subsequently added to the media and gently left under magnetic stirring to avoid bubbles formation.
The required volume of vehicle was added to a known amount of Compound A free base Form A or Mesylate salt Form 2, then sonicated at RT for at least 10 min. The formulation was kept under magnetic stirring for at least 10 min before analysis.

[2] = Formulations in 20% SBE-βCD with citrate buffer: appearance and pH
Method: The drug content and homogeneity of the mesylate salt Form 2 and the free base Form A of Compound A in 20% w/v SBE-PCD (Sulfobutyl-ether-β-Cyclodextrin, Captisol; CYDEX Pharmaceutical) were tested at different citrate buffer concentrations such as 0.05 M, 0.1 M, 0.5 M and 1 M, at pH 2.5. To prepare the vehicle, the proper amount of citric acid (Sigma Aldrich; CAS: 77-92-9) was dissolved in water in a volumetric flask, then the pH was increased up to 2.5 using 1M NaOH. Then water was added and brought to the final volume. SBE-PCD was weighed and added in a beaker containing the citrate buffer, then left under stirring until it was dissolved. The required volume of vehicle was added to a known amount of Compound A free base Form A or Mesylate salt Form 2, then sonicated at RT for at least 10 min. The formulation was kept under magnetic stirring for at least 10 min before analysis. The stability in terms of content uniformity and pH were evaluated for up to 8 days. The samples were kept at RT and the nominal concentration was 40 mg/ml.

[3] = Stability of mesylate salt Form 2 on storage (UPLC/UV/MS and XRPD), open and closed conditions; settings: for Stability: one year; for XRPD pattern change: open and closed; for % area main peak: 0 days; for Stability (overall): regular and stressed storage conditions
Method: The samples were dissolved in solvent (water/ACN 40/60) at about 1 mg/mL and diluted at about 0.07 mg/mL.
Approximately 120 mg of mesylate salt Form 2 of Compound A according to Example 2 was stored in a properly labelled open amber glass vial covered with filter paper to simulate open conditions, and in a screw cap glass to simulate closed conditions. The samples were prepared such that a layer of powder was uniformly spread on the bottom of the vial. Approximately 70 mg of powder were weighed in hydroxypropyl methylcellulose (HPMC) capsules size 3 (Capsugel) and for each condition two capsules were stored. The samples were placed at RT in a desiccator with NaBr to reach about 60% RH and in a stability chamber to reach 75% RH at 40 °C. The stability of the mesylate salt Form 2 of Compound A was thereby tested in four distinct conditions: open condition at 25 °C/60% RH, closed condition at 25 °C/60% RH, open condition at 40 °C/75% RH, and closed condition at 40 °C/75% RH. At the time points 0, 14, 28, 56, 84, 168 and 365 days the corresponding samples were removed from the stability chambers. After conditioning at RT, the samples were analyzed by UPLC/UV/MS and XRPD. One or two extra samples were stored for every condition.

[4] = 1% w/v HPMC, 1% w/v Vit. E TPGS, 0.05 M citrate buffer pH 2.5
[5] = 5% w/v PVP, 1% w/v Vit. E TPGS, 0.05 M citrate buffer pH 2.5
[6] = 5% w/v PVP, 0.05 M citrate buffer pH 2.5
[7] = 20% SBE-βCD, citrate buffer 0.05 M, nominal 40 mg/ml
[8] = 20% SBE-βCD, citrate buffer 0.05 M, nominal 40 mg/ml, listed as Free base Form A
[9] = 20% SBE-βCD, citrate buffer 0.1 M, nominal 40 mg/ml
[10] = 20% SBE-βCD, citrate buffer 0.1 M, nominal 40 mg/ml, listed as Free base Form A
[11] = 20% SBE-βCD, citrate buffer 0.5 M, nominal 40 mg/ml
[12] = 20% SBE-βCD, citrate buffer 0.5 M, nominal 40 mg/ml, listed as Free base Form A
[13] = 20% SBE-βCD, citrate buffer 1 M, nominal 40 mg/ml

With `COc1cc(-c2ccc(F)cn2)cc2c(N[C@H](C)c3noc(C)n3)ncnc12` [free base Form A, (R)-6-(5-fluoropyridin-2-yl)-8-methoxy-N-(1-(5-methyl-1,2,4-oxadiazol-3-yl)ethyl)quinazolin-4-amine] the Appearance [1, 4] was “Suspension”, the Mean recovery [1, 4] was 104.9% and the Found conc. [1, 4] was 41.96 mg/mL. The Appearance [1, 5] was “Suspension”, the Mean recovery [1, 5] was 111.18% and the Found conc. [1, 5] was 44.47 mg/mL. For the same molecule, the Appearance [1, 6] was “Suspension”, the Mean recovery [1, 6] was 100.3% and the Found conc. [1, 6] was 40.12 mg/mL. The Appearance ([1]; all formulations with polymer) was “suspensions”, the Appearance [2, 7] was “suspension” and the Appearance [2, 8] was “Fine suspension”. The pH of formulation [2, 8] was 3.1, the Appearance [2, 9] was “suspension” and the Appearance [2, 10] was “Suspension”. The pH of formulation [2, 10] was 3.5, the Appearance [2, 11] was “suspension” and the Appearance [2, 12] was “Thick suspension”. For the same molecule, the pH of formulation [2, 12] was 3.2, the Time of gelification ([2]; 20% SBE-βCD, citrate buffer 1 M) was 24 h and the Appearance [2, 13] was “Solution, gel after 24 hours”. For the same molecule, the pH of formulation [2, 13] was 3.2 and the Time of gelification ([2]; 20% SBE-βCD, citrate buffer 1 M, listed as Free base Form A) was ≤ 24 h.
With `COc1cc(-c2ccc(F)cn2)cc2c(N[C@H](C)c3noc(C)n3)ncnc12` [mesylate salt Form 2, (R)-6-(5-fluoropyridin-2-yl)-8-methoxy-N-(1-(5-methyl-1,2,4-oxadiazol-3-yl)ethyl)quinazolin-4-amine] the Appearance [1, 4] was “Solution”, the Mean recovery [1, 4] was 111.10% and the Found conc. [1, 4] was 44.44 mg/mL. The Appearance [1, 5] was “Solution”, the Mean recovery [1, 5] was 112.20% and the Found conc. [1, 5] was 44.87 mg/mL. For the same molecule, the Appearance [1, 6] was “Solution”, the Mean recovery [1, 6] was 116.30% and the Found conc. [1, 6] was 46.51 mg/mL. For the same molecule, the “Formulability in solution compared to free base Form A” value ([1]; with polymers, all excipients considered) was “better formulability in solution”, the Appearance [2, 7] was “Solution” and the pH of formulation [2, 7] was 3.0. For the same molecule, the Appearance [2, 9] was “Solution”, the pH of formulation [2, 9] was 3.0 and the Appearance [2, 11] was “Solution”. For the same molecule, the pH of formulation [2, 11] was 2.8, the Appearance [2, 13] was “Solution” and the pH of formulation [2, 13] was 2.8. For the same molecule, the “Formulability in solution compared to free base Form A” value ([2]; 20% SBE-βCD, citrate buffers) was “better formulability in solution”, the “Gelification during the test period” value ([2]; all citrate buffer concentrations, up to 8 days, RT) was “No gelification was observed” and the Appearance ([2]; all concentrations of citrate buffer) was “Stable solutions”. For the same molecule, the Stability ([3]; 25 °C/60% RH closed) was “remained stable throughout the entire test period”, the Stability ([3]; 25 °C/60% RH open) was “remained stable throughout the entire test period” and the XRPD pattern change ([3]; 25 °C/60% RH) was “no significant changes”. For the same molecule, the Stability ([3]; 40 °C/75% RH closed) was “remained stable throughout the entire test period”, the Stability ([3]; 40 °C/75% RH open) was “remained stable throughout the entire test period” and the XRPD pattern change ([3]; 40 °C/75% RH) was “no significant changes”. For the same molecule, the “% area main peak” value ([3]; ES+, 25 °C/60% RH closed) was 91.6 % area, the “% area main peak” value ([3]; ES+, 25 °C/60% RH open) was 91.6 % area and the “% area main peak” value ([3]; ES+, 40 °C/75% RH closed) was 91.6 % area. The “% area main peak” value ([3]; ES+, 40 °C/75% RH open) was 91.6 % area, the “% area main peak” value ([3]; ES−, 25 °C/60% RH closed) was 100.0 % area and the “% area main peak” value ([3]; ES−, 25 °C/60% RH open) was 100.0 % area. For the same molecule, the “% area main peak” value ([3]; ES−, 40 °C/75% RH closed) was 100.0 % area, the “% area main peak” value ([3]; ES−, 40 °C/75% RH open) was 100.0 % area and the “% area main peak” value ([3]; UV, 25 °C/60% RH closed) was 98.4 % area. The “% area main peak” value ([3]; UV, 25 °C/60% RH open) was 98.4 % area, the “% area main peak” value ([3]; UV, 40 °C/75% RH closed) was 98.4 % area and the “% area main peak” value ([3]; UV, 40 °C/75% RH open) was 98.4 % area. The “Stability (overall)” value [3] was “excellent stability for at least one year at RT; also recorded: remains stable in dry form for at least one year at different conditions” and the “Stability (overall)” value ([3]; listed as mesylate salt) was “stable for several months”.
